Data published in patent US20260028354A1, “TETRAHYDRONAPHTHALENE DERIVATIVES AS ESTROGEN RECEPTOR DEGRADERS” (REGENT OF THE UNIVERSITY OF MICHIGAN, priority 2022, published 2026).

Experiment: Western blot analysis for "B" compounds
Type: cell-based
Conditions: read-out: Traditional Western Degradation Potency (DC50)
Method: Western Blot Analysis. Western blot analysis was performed essentially as described previously. The cells treated with indicated compounds were lysed in Radioimmunoprecipitation Assay Protein Lysis and Extraction Buffer (25 mmol/I. Tris.HCl, pH 7.6, 150 mmol/L, NaCl, 1% Nonidet P-40, 1% sodium deoxycholate, and 0.1% sodium dodecyl sulfate) containing proteinase inhibitor cocktail (Roche Diagnostics, Mannheim, Germany). Equal amounts of total protein were electrophoresed through 10% SDS-polyacrylamide gels after determination of protein concentration by BCA assay (Fisher Scientific, Pittsburgh, PA), The separated protein bands were transferred onto PVDF membranes (GE Healthcare Life Sciences, Marlborough, MA) and blotted against different antibodies, as indicated. The blots were scanned, and the band intensities were quantified using GelQuant.NET software provided by biochemlabsolutions.com. The relative mean intensity of target proteins was expressed after normalization to the intensity of glyceraldehyde-3-phosphate dehydrogenase bands.

Compound | DC50 [nM]
O=C1CCC(N2Cc3cc4c(cc3C2=O)CN(C(=O)C2CCC(N3CC(Oc5ccc([C@@H]6c7ccc(O)cc7CC[C@@H]6c6ccccc6)cc5)C3)CC2)C4)C(=O)N1 (stereo partly drawn) [Compound B106, 3-(6-((1R,4r)-4-(3-(4-((1R,2S)-6-hydroxy-2-phenyl-1,2,3,4-tetrahydronaphthalen-1-yl)phenoxy)azetidin-1-yl)cyclohexane-1-carbonyl)-1-oxo-3,5,6,7-tetrahydropyrrolo[3,4-f]isoindol-2(1H)-yl)piperidine-2,6-dione] | < 10
O=C1CCC(N2C(=O)c3cc4c(cc3C2=O)CN(C(=O)[C@H]2CC[C@@H](N3CC(Nc5ccc([C@@H]6c7ccc(O)cc7CC[C@@H]6c6ccccc6)cc5)C3)CC2)C4)C(=O)N1 (stereo partly drawn) [Compound B129, 2-(2,6-dioxopiperidin-3-yl)-6-((1R,4s)-4-(3-((4-((1R,2S)-6-hydroxy-2-phenyl-1,2,3,4-tetrahydronaphthalen-1-yl)phenyl)amino)azetidin-1-yl)cyclohexane-1-carbonyl)-6,7-dihydropyrrolo[3,4-f]isoindole-1,3(2H,5H)-dione] | > 100
O=C1CCC(N2C(=O)c3cc4c(cc3C2=O)CN(C2CC(C(=O)N3CCCC(Oc5ccc([C@@H]6c7ccc(O)cc7CC[C@@H]6c6ccccc6)cc5)C3)C2)C4)C(=O)N1 (mixture of isomers) [Compound B14, 2-(2,6-dioxopiperidin-3-yl)-6-(3-(3-(4-((1R,2S)-6-hydroxy-2-phenyl-1,2,3,4-tetrahydronaphthalen-1-yl)phenoxy)piperidine-1-carbonyl)cyclobutyl)-6,7-dihydropyrrolo[3,4-f]isoindole-1,3(2H,5H)-dione] | > 100
O=C1CCC(N2C(=O)c3cc4c(cc3C2=O)CN(CC(=O)N2CCC[C@H](Oc3ccc([C@@H]5c6ccc(O)cc6CC[C@@H]5c5ccc(F)cc5)cc3)C2)C4)C(=O)N1 (stereo partly drawn) [Compound B36, 2-(2,6-dioxopiperidin-3-yl)-6-(2-((S)-3-(4-((1R,2S)-2-(4-fluorophenyl)-6-hydroxy-1,2,3,4-tetrahydronaphthalen-1-yl)phenoxy)piperidin-1-yl)-2-oxoethyl)-6,7-dihydropyrrolo[3,4-f]isoindole-1,3(2H,5H)-dione] | > 100
O=C1CCC(N2C(=O)c3cc4c(cc3C2=O)CN(CC(=O)N2CCC3(CC2)CN(c2ccc([C@@H]5c6ccc(O)cc6CC[C@@H]5c5ccc(F)cc5Cl)cc2)C3)C4)C(=O)N1 (mixture of isomers) [Compound B259, 6-(2-(2-(4-((1R,2S)-2-(2-chloro-4-fluorophenyl)-6-hydroxy-1,2,3,4-tetrahydronaphthalen-1-yl)phenyl)-2,7-diazaspiro[3.5]nonan-7-yl)-2-oxoethyl)-2-(2,6-dioxopiperidin-3-yl)-6,7-dihydropyrrolo[3,4-f]isoindole-1,3(2H,5H)-dione] | 10 to 100
O=C1CCC(N2C(=O)c3cc4c(cc3C2=O)CN(C(=O)CN2CCC3(CC2)CCN(c2c(F)cc([C@@H]5c6ccc(O)cc6CC[C@@H]5c5ccccc5)cc2F)C3)C4)C(=O)N1 (mixture of isomers) [Compound B34, 6-(2-(2-(2,6-difluoro-4-((1R,2S)-6-hydroxy-2-phenyl-1,2,3,4-tetrahydronaphthalen-1-yl)phenyl)-2,8-diazaspiro[4.5]decan-8-yl)acetyl)-2-(2,6-dioxopiperidin-3-yl)-6,7-dihydropyrrolo[3,4-f]isoindole-1,3(2H,5H)-dione] | > 100
O=C1CCC(N2Cc3cc4c(cc3C2=O)CN(CC(=O)N2CCC3(C2)CN(c2ccc([C@@H]5c6ccc(O)cc6CC[C@@H]5c5ccccc5)cc2)C3)C4)C(=O)N1 (mixture of isomers) [Compound B184, 3-(6-(2-(2-(4-((1R,2S)-6-hydroxy-2-phenyl-1,2,3,4-tetrahydronaphthalen-1-yl)phenyl)-2,6-diazaspiro[3.4]octan-6-yl)-2-oxoethyl)-1-oxo-3,5,6,7-tetrahydropyrrolo[3,4-f]isoindol-2(1H)-yl)piperidine-2,6-dione] | < 10
O=C1CCC(N2C(=O)c3cc4c(cc3C2=O)CN(C2CC3CCC(C2)N3CC2CCN(c3ccc([C@@H]5c6ccc(O)cc6CC[C@@H]5c5ccccc5)cc3)CC2)C4)C(=O)N1 (stereo partly drawn) [Compound B292, 2-(2,6-dioxopiperidin-3-yl)-6-(8-((1-(4-((1R,2S)-6-hydroxy-2-phenyl-1,2,3,4-tetrahydronaphthalen-1-yl)phenyl)piperidin-4-yl)methyl)-8-azabicyclo[3.2.1]octan-3-yl)-6,7-dihydropyrrolo[3,4-f]isoindole-1,3(2H,5H)-dione] | > 100

Now from value to compound:

DC50 [nM] | Compound
> 100 | O=C1CCC(N2C(=O)c3cc4c(cc3C2=O)CN(CC(=O)N2CCCC(Oc3ccc([C@@H]5c6ccc(O)cc6CC[C@@H]5c5ccccc5)cc3)C2)C4)C(=O)N1 (mixture of isomers) [Compound B13, 2-(2,6-dioxopiperidin-3-yl)-6-(2-(3-(4-((1R,2S)-6-hydroxy-2-phenyl-1,2,3,4-tetrahydronaphthalen-1-yl)phenoxy)piperidin-1-yl)-2-oxoethyl)-6,7-dihydropyrrolo[3,4-f]isoindole-1,3(2H,5H)-dione]
> 100 | O=C1CCC(N2C(=O)c3cc4c(cc3C2=O)CN([C@H]2CC[C@@H](NC3CCN(c5ccc([C@@H]6c7ccc(O)cc7CC[C@@H]6c6ccccc6)cc5)CC3)CC2)C4)C(=O)N1 (stereo partly drawn) [Compound B96, 2-(2,6-dioxopiperidin-3-yl)-6-((1S,4s)-4-((1-(4-((1R,2S)-6-hydroxy-2-phenyl-1,2,3,4-tetrahydronaphthalen-1-yl)phenyl)piperidin-4-yl)amino)cyclohexyl)-6,7-dihydropyrrolo[3,4-f]isoindole-1,3(2H,5H)-dione]
> 100 | O=C1CCC(N2C(=O)c3cc4c(cc3C2=O)CCN(C(=O)CN2CCC3(CC2)CCN(c2ccc([C@@H]5c6ccc(O)cc6CC[C@@H]5c5ccccc5)cc2)CC3)CC4)C(=O)N1 (stereo partly drawn) [Compound B40, 2-(2,6-dioxopiperidin-3-yl)-7-(2-(9-(4-((1R,2S)-6-hydroxy-2-phenyl-1,2,3,4-tetrahydronaphthalen-1-yl)phenyl)-3,9-diazaspiro[5.5]undecan-3-yl)acetyl)-6,7,8,9-tetrahydroazepino[4,5-f]isoindole-1,3(2H,5H)-dione]
10 to 100 | O=C1CCC(N2C(=O)c3cc4c(cc3C2=O)CN(C(=O)[C@H]2CC[C@H](CN3CC(Oc5ccc([C@@H]6c7ccc(O)cc7CC[C@@H]6c6ccccc6)cc5)C3)CC2)C4)C(=O)N1 (stereo partly drawn) [Compound B281, 2-(2,6-dioxopiperidin-3-yl)-6-((1R,4r)-4-((3-(4-((1R,2S)-6-hydroxy-2-phenyl-1,2,3,4-tetrahydronaphthalen-1-yl)phenoxy)azetidin-1-yl)methyl)cyclohexane-1-carbonyl)-6,7-dihydropyrrolo[3,4-f]isoindole-1,3(2H,5H)-dione]
10 to 100 | C[C@@H]1CC2(CCN(c3ccc([C@@H]4c5ccc(O)cc5CC[C@@H]4c4ccc(F)cc4)cc3)CC2)CN1C(=O)CN1Cc2cc3c(cc2C1)C(=O)N(C1CCC(=O)NC1=O)C3=O (mixture of isomers) [Compound B26, 2-(2,6-dioxopiperidin-3-yl)-6-(2-((R)-8-(4-((1R,2S)-2-(4-fluorophenyl)-6-hydroxy-1,2,3,4-tetrahydronaphthalen-1-yl)phenyl)-3-methyl-2,8-diazaspiro[4.5]decan-2-yl)-2-oxoethyl)-6,7-dihydropyrrolo[3,4-f]isoindole-1,3(2H,5H)-dione]
> 100 | O=C1CCC(N2C(=O)c3cc4c(cc3C2=O)CN(Cc2ccc(N3CCN(c5ccc([C@@H]6c7ccc(O)cc7CC[C@@H]6c6ccccc6)cc5)CC3)nc2)C4)C(=O)N1 (stereo partly drawn) [Compound B282, 2-(2,6-dioxopiperidin-3-yl)-6-((6-(4-(4-((1R,2S)-6-hydroxy-2-phenyl-1,2,3,4-tetrahydronaphthalen-1-yl)phenyl)piperazin-1-yl)pyridin-3-yl)methyl)-6,7-dihydropyrrolo[3,4-f]isoindole-1,3(2H,5H)-dione]
> 100 | CN(CC1CN(c2ccc([C@@H]3c4ccc(O)cc4CC[C@@H]3c3ccccc3)cc2)C1)C1CCC(N2Cc3cc4c(cc3C2)C(=O)N(C2CCC(=O)NC2=O)C4=O)CC1 (stereo partly drawn) [Compound B95, 2-(2,6-dioxopiperidin-3-yl)-6-(4-(((1-(4-((1R,2S)-6-hydroxy-2-phenyl-1,2,3,4-tetrahydronaphthalen-1-yl)phenyl)azetidin-3-yl)methyl)(methyl)amino)cyclohexyl)-6,7-dihydropyrrolo[3,4-f]isoindole-1,3(2H,5H)-dione]
> 100 | O=C1CCC(N2C(=O)c3cc4c(cc3C2=O)CCN(CC(=O)N2CC3(CCN(c5ccc([C@@H]6c7ccc(O)cc7CC[C@@H]6c6ccccc6)cc5)CC3)C2)CC4)C(=O)N1 (stereo partly drawn) [Compound B41, 2-(2,6-dioxopiperidin-3-yl)-7-(2-(7-(4-((1R,2S)-6-hydroxy-2-phenyl-1,2,3,4-tetrahydronaphthalen-1-yl)phenyl)-2,7-diazaspiro[3.5]nonan-2-yl)-2-oxoethyl)-6,7,8,9-tetrahydroazepino[4,5-f]isoindole-1,3(2H,5H)-dione]
> 100 | C[C@H]1CC2(CCN(CC(=O)N3Cc4cc5c(cc4C3)C(=O)N(C3CCC(=O)NC3=O)C5=O)CC2)CN1c1ccc([C@@H]2c3ccc(O)cc3CC[C@@H]2c2ccccc2)cc1 (stereo partly drawn) [Compound B25, 2-(2,6-dioxopiperidin-3-yl)-6-(2-((S)-2-(4-((1R,2S)-6-hydroxy-2-phenyl-1,2,3,4-tetrahydronaphthalen-1-yl)phenyl)-3-methyl-2,8-diazaspiro[4.5]decan-8-yl)acetyl)-6,7-dihydropyrrolo[3,4-f]isoindole-1,3(2H,5H)-dione]
